Experimental data: patent US9062040B2 (priority 2009, dated 2015)
Where two headings read alike, the source gives them in different places.

Tests used:
[1] = system: Pseudoperonospora cubensis; experiment: Test J: cucumber downy mildew, spray before inoculation, cucumber seedlings, mixtures with Colby expected values; type: in vivo; settings: Table C
Text: General protocol for preparing test compositions for Tests I-K: Amisulbrom was formulated and ametoctradin was obtained as unformulated, technical-grade materials. Compound 1 were formulated as an oil dispersion containing a mixture of POE (polyoxyethylene) 40 sorbitol hexaoleate, POE 20 sorbitan trioleate, and alkyl-peg resin surfactants in a liquid carrier consisting of a distilled C18 fatty acid methyl ester. Ametoctradin was first dissolved in acetone and then suspended at the desired concentration (in ppm) in acetone and purified water (50/50 mix by volume) containing 250 ppm of the surfactant Trem® 014 (polyhydric alcohol esters). Amisulbrom was dispersed in sufficient water to give the desired concentration, and neither organic solvent nor surfactant was added to the suspension. The resulting test mixtures were then used in Tests I-K. Spraying a 200 ppm test mixture to the point of run-off on the test plants was the equivalent of a rate of 800 g/ha. The tests were replicated three times and the results reported as the mean average of the three replicates.
The presence of a synergistic effect between two active ingredients was established with the aid of the Colby equation (see Colby, S. R. “Calculating Synergistic and Antagonistic Responses of Herbicide Combinations”, Weeds, (1967), 15, 20-22):
Using the method of Colby, the presence of a synergistic interaction between two active ingredients is established by first calculating the predicted activity, p, of the mixture based on activities of the two components applied alone. If p is lower than the experimentally established effect, synergism has occurred. In the equation above, A is the fungicidal activity in percentage control of one component applied alone at rate x. The B term is the fungicidal activity in percentage control of the second component applied at rate y. The equation estimates p, the expected fungicidal activity of the mixture of A at rate x with B at rate y if their effects are strictly additive and no interaction has occurred.
The test mixture was sprayed to the point of run-off on cucumber seedlings. The following day the seedlings were inoculated with a spore suspension of Pseudoperonospora cubensis (the causal agent of cucumber downy mildew) and incubated in saturated atmosphere at 20° C. for 24 h, and moved to a growth chamber at 20° C. for 6 days, after which time disease ratings were made.
Results for Tests I to K are given in Tables C-E. Each table corresponds to a set of evaluations performed together at the same time. In each table, a rating of 100 indicates 100% disease control and a rating of 0 indicates no disease control (relative to the controls). Columns labeled “Obsd” indicate the average of results observed from three replications. Columns labeled “Exptd” indicate the expected value for each treatment mixture using the Colby equation.

Phytophthora infestans [2] = type: in vivo
Phytophthora infestans [3] = type: in vivo; settings: Table E
[4] = Stability experiments for solid forms of Compound 1 (temperature and humidity, XRPD); type: physicochemical
Text: The physical stability of polymorph Form A was characterized. […] Samples of Form A exposed to 53, 75, and 85% relative humidity at ambient temperature (10 days) were also unchanged, as determined by XRPD.
The physical stability of polymorph Form B was characterized.
The physical stability of the amorphous material was characterized.

[5] = Relative stability experiments for polymorph Form A and Form B (DSC heat of fusion rule, competitive interconversion); type: physicochemical
Method: Differential scanning calorimetry was performed on a Thermal Analysis Q2000 Differential Scanning Calorimeter. A sample (2.3 mg) was placed in an aluminum DSC pan. The sample cell was heated under a nitrogen purge at 10° C./minute. Indium metal was used as the calibration standard.
The relative stability of polymorphic Forms A and B of Compound 1 was characterized with Differential Scanning Calorimetry and a competitive interconversion experiment. Phase transitions of solids can be thermodynamically reversible or irreversible. Crystalline polymorphs which transform reversibly at a specific transition temperature (Ttr) are called enantiotropic polymorphs. If the crystalline polymorphs are not interconvertable, the system is monotropic (i.e. one polymorph is thermodynamically stable relative to the other over the entire temperature range up to melting). The relationship between forms can be determined by the application of the heat of fusion rule (Burger, A.; Ramberger, R. Mikrochim. Acta [Wein], 1979 II, 259-271). The rule states that if the higher melting form has the lower heat of fusion, then the two forms are enantiotropic. Otherwise, they are monotropic.
To support this conclusion, a competitive interconversion experiment between polymorph Forms A and B was performed in ethanol at room temperature. […]

[6] = Table C, component (b) alone 0.08 ppm
[7] = Table C, component (b) alone 0.4 ppm
[8] = Table C, component (b) alone 2 ppm
[9] = Table C, component (b) alone 10 ppm
[10] = Table C, component (b) alone 40 ppm
[11] = Table D, component (b) alone 0.08 ppm
[12] = Table D, component (b) alone 0.4 ppm
[13] = Table D, component (b) alone 2 ppm
[14] = Table D, component (b) alone 10 ppm

SMILES | stability of the pure solid form (summary of Characterization Example 4) [4] | Test J Obsd ([1]; component (b) alone 0.08 ppm) [%] | Test J Obsd ([1]; component (b) alone 0.4 ppm) [%] | Test J Obsd ([1]; component (b) alone 2 ppm) [%] | Test J Obsd ([1]; component (b) alone 10 ppm) [%] | Test J Obsd ([1]; component (b) alone 40 ppm) [%] | Test I Obsd (Phytophthora infestans [2]; [6]) [%] | Test I Obsd (Phytophthora infestans [2]; [7]) [%] | Test I Obsd (Phytophthora infestans [2]; [8]) [%] | Test I Obsd (Phytophthora infestans [2]; [9]) [%] | Test I Obsd (Phytophthora infestans [2]; [10]) [%] | Test I Obsd (Phytophthora infestans [2]; [11]) [%] | Test I Obsd (Phytophthora infestans [2]; [12]) [%] | Test I Obsd (Phytophthora infestans [2]; [13]) [%] | Test I Obsd (Phytophthora infestans [2]; [14]) [%] | Test K Obsd (Phytophthora infestans [3]; component (b) alone 0.4 ppm) [%] | Test K Obsd (Phytophthora infestans [3]; component (b) alone 2 ppm) [%] | Test K Obsd (Phytophthora infestans [3]; component (b) alone 10 ppm) [%] | Test K Obsd (Phytophthora infestans [3]; component (b) alone 40 ppm) [%] | Test K Obsd (Phytophthora infestans [3]; component (b) alone 200 ppm) [%] | also measured
Cc1cc(C(F)(F)F)nn1CC(=O)N1CCC(c2nc(C3=NOC(c4c(F)cccc4F)C3)cs2)CC1 (racemic) [Compound 1, 1-[4-[4-[5-(2,6-difluorophenyl)-4,5-dihydro-3-isoxazolyl]-2-thiazolyl]-1-piperidinyl]-2-[5-methyl-3-(trifluoromethyl)-1H-pyrazol-1-yl]ethanone] |  |  |  |  |  |  |  |  |  |  |  |  |  |  |  |  |  |  |  |  | Test J Obsd ([1]; Compound 1 alone 0.00001 ppm): 17%; Test J Obsd ([1]; Compound 1 alone 0.0001 ppm): 47%; Test J Obsd ([1]; Compound 1 alone 0.001 ppm): 40%; Test J Obsd ([1]; Compound 1 alone 0.01 ppm): 94%; Test J Obsd ([1]; Compound 1 alone 0.1 ppm): 100%; Test I Obsd (Phytophthora infestans [2]; Table C, Compound 1 alone 0.00001 ppm): 39%; Test I Obsd (Phytophthora infestans [2]; Table C, Compound 1 alone 0.0001 ppm): 63%; Test I Obsd (Phytophthora infestans [2]; Table C, Compound 1 alone 0.001 ppm): 72%; Test I Obsd (Phytophthora infestans [2]; Table C, Compound 1 alone 0.01 ppm): 100%; Test I Obsd (Phytophthora infestans [2]; Table C, Compound 1 alone 0.1 ppm): 100%; Test I Obsd (Phytophthora infestans [2]; Table D, Compound 1 alone 0.00001 ppm): 0%; Test I Obsd (Phytophthora infestans [2]; Table D, Compound 1 alone 0.0001 ppm): 0%; Test I Obsd (Phytophthora infestans [2]; Table D, Compound 1 alone 0.001 ppm): 80%; Test I Obsd (Phytophthora infestans [2]; Table D, Compound 1 alone 0.01 ppm): 93%; Test I Obsd (Phytophthora infestans [2]; Table D, Compound 1 alone 0.1 ppm): 100%; Test K Obsd (Phytophthora infestans [3]; Compound 1 alone 0.001 ppm): 0%; Test K Obsd (Phytophthora infestans [3]; Compound 1 alone 0.01 ppm): 17%; Test K Obsd (Phytophthora infestans [3]; Compound 1 alone 0.1 ppm): 80%; Test K Obsd (Phytophthora infestans [3]; Compound 1 alone 1 ppm): 99%; Test K Obsd (Phytophthora infestans [3]; Compound 1 alone 10 ppm): 100%
Cc1cc(C(F)(F)F)nn1CC(=O)N1CCC(c2nc(C3=NOC(c4c(F)cccc4F)C3)cs2)CC1 (racemic) [polymorph Form A, 1-[4-[4-[5-(2,6-difluorophenyl)-4,5-dihydro-3-isoxazolyl]-2-thiazolyl]-1-piperidinyl]-2-[5-methyl-3-(trifluoromethyl)-1H-pyrazol-1-yl]ethanone] | physically stable and non-hydrated |  |  |  |  |  |  |  |  |  |  |  |  |  |  |  |  |  |  |  | physical stability by XRPD ([4]; exposed to 53, 75, and 85% relative humidity at ambient temperature (10 days)): unchanged; physical stability by XRPD ([4]; maintained at 40, 60, and 80° C. for 4 days): remained unchanged
Cc1cc(C(F)(F)F)nn1CC(=O)N1CCC(c2nc(C3=NOC(c4c(F)cccc4F)C3)cs2)CC1 (racemic) [polymorph Form B, 1-[4-[4-[5-(2,6-difluorophenyl)-4,5-dihydro-3-isoxazolyl]-2-thiazolyl]-1-piperidinyl]-2-[5-methyl-3-(trifluoromethyl)-1H-pyrazol-1-yl]ethanone] |  |  |  |  |  |  |  |  |  |  |  |  |  |  |  |  |  |  |  |  | relative stability by heat of fusion rule from DSC data ([5]; DSC data of Characterization Example 3, forms monotropically related): most stable form throughout the temperature range up to the melt; relative stability, competitive interconversion experiment ([5]; equal amounts of Forms A and B in saturated ethanol, room temperature, stirred 4 days, solids identified by XRPD): more stable than polymorph Form A; physical stability by XRPD ([4]; exposed to 85% relative humidity at ambient temperature (10 days)): unchanged; physical stability by XRPD ([4]; maintained at 40° C. and 25° C. for 4 days): remained unchanged
CCCCCCCCc1c(CC)nc2ncnn2c1N [Ametoctradin, ametoctradin] |  | 0 | 0 | 0 | 26 | 95 | 8 | 23 | 63 | 83 | 83 | 9 | 0 | 0 | 94 | 0 | 0 | 0 | 0 | 0 | Test I Obsd (Phytophthora infestans [2]; Table D, component (b) alone 40 ppm): 93%
Cc1c(Br)c2ccc(F)cc2n1S(=O)(=O)c1ncn(S(=O)(=O)N(C)C)n1 [Amisulbrom, amisulbrom] |  | 0 | 0 | 95 | 100 | 100 | 57 | 52 | 82 | 100 | 100 | 9 | 63 | 85 | 86 | 0 | 0 | 0 | 0 | 0 | Test I Obsd (Phytophthora infestans [2]; Table D, component (b) alone 0.016 ppm): 0%
Cc1cc(C(F)(F)F)nn1CC(=O)N1CCC(c2nc(C3=NOC(c4c(F)cccc4F)C3)cs2)CC1 (stereo not drawn) [Amorphous Compound 1, 1-[4-[4-[5-(2,6-difluorophenyl)-4,5-dihydro-3-isoxazolyl]-2-thiazolyl]-1-piperidinyl]-2-[5-methyl-3-(trifluoromethyl)-1H-pyrazol-1-yl]ethanone] | stable and non-hydrated |  |  |  |  |  |  |  |  |  |  |  |  |  |  |  |  |  |  |  | physical stability by XRPD ([4]; elevated temperatures (60, 80 and 100° C.) and humidities (75 and 85% relative humidity) for 10-12 days): remained unchanged
